DBAASP
In brackets after ≈: the same amount, converted by molar mass.

Legend:
Assay in all cases: ≥ marks a high value that may be exact or a test limit, other limits are often not marked, values filed in µg/mL are converted to µM
[1] = tested on: Candida albicans JCM 2085
[2] = tested on: Staphylococcus aureus JCM 2874
[3] = tested on: Bacillus cereus JCM 2152
[4] = tested on: Ramulariopsis gossypii
[5] = tested on: Pseudomonas syringae pv. tabaci
[6] = tested on: Pseudomonas aeruginosa ATCC 27853
[7] = tested on: Cryptococcus neoformans ATCC 28957
[8] = tested on: Escherichia coli ATCC 25922
[9] = tested on: Fusarium oxysporum
[10] = tested on: Candida albicans ATCC 90028
[11] = tested on: Trichoderma asperellum
[12] = tested on: Xanthomonas campestris pv. citri
[13] = tested on: Bacillus cereus ATCC 14579
[14] = tested on: Bacillus subtilis ATCC 23857
[15] = tested on: Fusarium oxysporum f.sp. vasinfectum
[16] = tested on: Staphylococcus aureus ATCC 25923
[17] = tested on: Rhizoctonia solani
[18] = tested on: Pectobacterium carotovorum
[19] = tested on: Fusarium solani
[20] = tested on: Pseudomonas aeruginosa PAO1
[21] = tested on: Klebsiella pneumoniae
[22] = tested on: Staphylococcus aureus
[23] = tested on: Escherichia coli K-12
[24] = tested on: Staphylococcus aureus NCTC 8325-4
[25] = tested on: Pseudomonas aeruginosa PA-W1
[26] = tested on: Pseudomonas aeruginosa CGMCC 1.2421
[27] = tested on: Klebsiella pneumoniae CGMCC 1.1736
[28] = tested on: Escherichia coli CGMCC 1.8732
[29] = tested on: Staphylococcus aureus CGMCC 1.8721
[30] = tested on: Staphylococcus epidermidis CGMCC 1.4260
[31] = tested on: Bacillus subtilis CGMCC 1.3376
[32] = tested on: Klebsiella pneumoniae ATCC 700603
[33] = tested on: Staphylococcus aureus RN4220
[34] = tested on: Staphylococcus aureus MRSA-15
[35] = tested on: Klebsiella pneumoniae NCTC 13442
[36] = tested on: Staphylococcus aureus ATCC 29213
[37] = tested on: Campylobacter jejuni NCTC 11351
[38] = tested on: Staphylococcus aureus NCTC 12493
[39] = tested on: Salmonella typhimurium SL1344
[40] = tested on: Listeria monocytogenes NCTC 11994
[41] = tested on: Pseudomonas aeruginosa Q14-0208
[42] = tested on: Klebsiella pneumoniae Q14-0146
[43] = tested on: Klebsiella pneumoniae Q14-0095
[44] = tested on: Staphylococcus aureus Q14-0320
[45] = tested on: Staphylococcus aureus Q14-0325
[46] = tested on: Acinetobacter baumannii Q13-0717
[47] = tested on: Acinetobacter baumannii
[48] = tested on: Acinetobacter baumannii Q12-0867
[49] = tested on: Escherichia coli
[50] = tested on: Enterococcus faecalis JH-2-2
[51] = tested on: Campylobacter jejuni
[52] = tested on: Acinetobacter baumannii Q12-0809
[53] = tested on: Pseudomonas aeruginosa Q14-0890

## CC[C@H](C)[C@H](NC(=O)[C@H](CCCCN)NC(=O)[C@H](CO)NC(=O)[C@@H](NC(=O)[C@H](CC(C)C)NC(=O)[C@H](CO)NC(=O)[C@@H]1CCCN1C(=O)[C@H](CC(C)C)NC(=O)[C@H](Cc1ccccc1)NC(=O)[C@H](CC(N)=O)NC(=O)[C@H](C)NC(=O)[C@H](CC(C)C)NC(=O)[C@H](C)NC(=O)CNC(=O)[C@@H](NC(=O)[C@@H](NC(=O)[C@H](CO)NC(=O)CNC(=O)[C@H](Cc1ccccc1)NC(=O)[C@@H](N)Cc1ccccc1)[C@@H](C)O)[C@@H](C)CC)[C@@H](C)CC)C(=O)N[C@@H](CCCN=C(N)N)C(=O)N[C@@H](CC(N)=O)C(N)=O [FFGSTIGALANFLPSLISKIRN]
[1]
  MIC: 27 µM (≈ 64 µg/mL)
[2]
  MIC: 27 µM (≈ 64 µg/mL)
[3]
  MIC: 6.76 µM (≈ 16 µg/mL)

## CC(C)C[C@H](NC(=O)[C@H](C)NC(=O)[C@H](CC(C)C)NC(=O)[C@@H](NC(=O)[C@H](C)NC(=O)[C@H](CCCCN)NC(=O)[C@H](CC(C)C)NC(=O)[C@H](CC(C)C)NC(=O)[C@@H](NC(=O)[C@H](Cc1cnc[nH]1)NC(=O)[C@@H](NC(=O)[C@H](CCCCN)NC(=O)[C@H](CO)NC(=O)[C@H](CC(C)C)NC(=O)[C@@H](NC(=O)[C@@H](N)CCCCN)C(C)C)C(C)C)[C@@H](C)O)C(C)C)C(N)=O [KVLSKVHTLLKAVLAL]
[4]
  MIC: 2 µM (≈ 3.46 µg/mL)
[5]
  MIC: 4 µM (≈ 6.93 µg/mL)
[6]
  MIC: 5.33 µM (≈ 9.23 µg/mL)
[7]
  MIC: 4 µM (≈ 6.93 µg/mL)
[8]
  MIC: 2 µM (≈ 3.46 µg/mL)
[9]
  MIC: 4 µM (≈ 6.93 µg/mL)
[10]
  MIC: 8 µM (≈ 13.9 µg/mL)
[11]
  MIC: 16 µM (≈ 27.7 µg/mL)
[12]
  MIC: 1 µM (≈ 1.73 µg/mL)
[13]
  MIC: 3.33 µM (≈ 5.77 µg/mL)
[14]
  MIC: 1 µM (≈ 1.73 µg/mL)
[15]
  MIC: 4 µM (≈ 6.93 µg/mL)
[16]
  MIC: 4 µM (≈ 6.93 µg/mL)
[17]
  MIC: 16 µM (≈ 27.7 µg/mL)
[18]
  MIC: 1 µM (≈ 1.73 µg/mL)
[19]
  MIC: 16 µM (≈ 27.7 µg/mL)

## CC(C)C[C@H](NC(=O)[C@H](CCCCN)NC(=O)[C@H](CCCCN)NC(=O)[C@H](CC(C)C)NC(=O)[C@H](CC(C)C)NC(=O)[C@H](CCCCN)NC(=O)[C@H](CCCCN)NC(=O)[C@H](CC(C)C)NC(=O)[C@H](CC(C)C)NC(=O)[C@H](CCCCN)NC(=O)[C@H](CCCCN)NC(=O)[C@@H](N)CC(C)C)C(N)=O [LKKLLKKLLKKL]
[20]
  MIC: 7.81 µM (≈ 11.4 µg/mL)
[21]
  MIC: 31.3 µM (≈ 45.9 µg/mL)
[22]
  MIC: 62.5 µM (≈ 91.6 µg/mL)
[23]
  MIC: 7.81 µM (≈ 11.4 µg/mL)
[24]
  MIC: 15.6 µM (≈ 22.9 µg/mL)
[25]
  MIC: 15.6 µM (≈ 22.9 µg/mL)

## CC[C@H](C)[C@H](NC(=O)[C@H](CO)NC(=O)CNC(=O)[C@@H](NC(=O)[C@@H](N)CCCN=C(N)N)[C@@H](C)CC)C(=O)N[C@@H](CC(C)C)C(=O)NCC(=O)N[C@@H](C)C(=O)N[C@@H](CC(C)C)C(=O)N[C@@H](C)C(=O)N[C@@H](CCCCN)C(=O)NCC(=O)N[C@@H](CC(C)C)C(=O)N1CCC[C@H]1C(=O)N[C@H](C(=O)N[C@@H](CC(C)C)C(=O)N[C@H](C(=O)N[C@@H](CO)C(=O)N[C@@H](Cc1c[nH]c2ccccc12)C(=O)N[C@H](C(=O)N[C@@H](CCCCN)C(=O)N[C@@H](CC(N)=O)C(=O)N[C@@H](CCCN=C(N)N)C(N)=O)[C@@H](C)CC)[C@@H](C)CC)[C@@H](C)O [RIGSILGALAKGLPTLISWIKNR]
[26]
  MIC: 6.25 µM (≈ 15.5 µg/mL)
[27]
  MIC: 12.5 µM (≈ 31 µg/mL)
[28]
  MIC: 12.5 µM (≈ 31 µg/mL)
[29]
  MIC: 6.25 µM (≈ 15.5 µg/mL)
[30]
  MIC: 3.13 µM (≈ 7.75 µg/mL)
[31]
  MIC: 6.25 µM (≈ 15.5 µg/mL)

## CSCC[C@H](NC(=O)[C@@H](N)[C@@H](C)O)C(=O)N[C@@H](CO)C(=O)N[C@@H](CC(C)C)C(=O)N[C@@H](CCCN=C(N)N)C(=O)N[C@@H](Cc1ccccc1)C(=O)N[C@@H](Cc1c[nH]c2ccccc12)C(=O)N[C@@H](CCCN=C(N)N)C(=O)N[C@@H](Cc1c[nH]c2ccccc12)C(=O)N[C@@H](CCCCN)C(=O)N[C@H](C(=O)N[C@@H](CCCN=C(N)N)C(=O)O)C(C)C [TMSLRFWRWKVR]
[32]
  MIC: > 76.8 µM
[33]
  MIC: ≥ 38.4 µM
[34]
  MIC: ≥ 38.4 µM
[20]
  MIC: 38.4 µM (≈ 64 µg/mL)
[35]
  MIC: ≥ 76.8 µM
[36]
  MIC: 76.8 µM (≈ 128 µg/mL)
[37]
  MIC: ≥ 76.8 µM
[38]
  MIC: ≥ 38.4 µM
[39]
  MIC: ≥ 38.4 µM
[40]
  MIC: ≥ 38.4 µM
[6]
  MIC: 76.8 µM (≈ 128 µg/mL)
[41]
  MIC: ≥ 76.8 µM
[42]
  MIC: ≥ 76.8 µM
[43]
  MIC: ≥ 76.8 µM
[44]
  MIC: ≥ 76.8 µM
[45]
  MIC: ≥ 76.8 µM
[46]
  MIC: 19.2 µM (≈ 32 µg/mL)
[47]
  MIC: ≥ 76.8 µM
[23]
  MIC: ≥ 38.4 µM
[48]
  MIC: 9.6 µM (≈ 16 µg/mL)
[49]
  MIC: 76.8 µM (≈ 128 µg/mL)
[50]
  MIC: ≥ 38.4 µM
[51]
  MIC: ≥ 76.8 µM
[52]
  MIC: ≥ 38.4 µM
[53]
  MIC: ≥ 38.4 µM
